In ChEMBL document CHEMBL4033618, “Covalently linked kanamycin - Ciprofloxacin hybrid antibiotics as a tool to fight bacterial resistance” (Bioorg Med Chem, 2017):
≈ marks a conversion by molar mass, not a printed value.

Tests used:
Escherichia coli [1] = test: Antibacterial activity against aminoglycosides-susceptible Escherichia coli 25922 by double microdilution method; type: functional; conditions: ATCC 25922
Escherichia coli [2] = test: Antibacterial activity against aminoglycosides-resistant Escherichia coli BL21 harboring pSF815 encode for bifunctional AAC(6')/APH(2\") resistance enzyme by double microdilution method; type: functional
Escherichia coli [3] = test: Antibacterial activity against aminoglycosides-susceptible Escherichia coli R477-100 by double microdilution method; type: functional
Escherichia coli [4] = test: Ratio of MIC for Escherichia coli XL1 blue harboring pET9d encode for APH(3')-1a resistance enzyme to MIC for Escherichia coli XL1 blue; type: functional
Escherichia coli [5] = test: Antibacterial activity against kanamycin-resistant Escherichia coli AG100B by double microdilution method; type: functional
Escherichia coli [6] = test: Ratio of MIC for aminoglycosides-resistant Escherichia coli BL21 harboring pET11d encode for APH(3')-2b resistance enzyme to MIC for Escherichia coli BL21; type: functional
Escherichia coli [7] = test: Ratio of MIC for aminoglycosides-resistant Escherichia coli BL21 harboring pETSACG1 encode for APH(3')-3a resistance enzyme to MIC for Escherichia coli BL21; type: functional
Escherichia coli [8] = test: Antibacterial activity against Escherichia coli BL21 by double microdilution method; type: functional
Escherichia coli [9] = test: Antibacterial activity against aminoglycosides-resistant Escherichia coli BL21 harboring pET11d encode for APH(3')-2b resistance enzyme by double microdilution method; type: functional
[10] = tested on: Staphylococcus epidermidis; test: Antibacterial activity against aminoglycosides-susceptible Staphylococcus epidermidis by double microdilution method; type: functional
Escherichia coli [11] = test: Antibacterial activity against Escherichia coli XL1 blue harboring pET9d encode for APH(3')-1a resistance enzyme by double microdilution method; type: functional
Escherichia coli [12] = test: Antibacterial activity against Escherichia coli XL1 blue by double microdilution method; type: functional
Escherichia coli [13] = test: Antibacterial activity against aminoglycosides-resistant Escherichia coli BL21 harboring pETSACG1 encode for APH(3')-3a resistance enzyme by double microdilution method; type: functional
Escherichia coli [14] = test: Inhibition of protein translation in Escherichia coli S30 cell extract using circular DNA with pBESTluc after 60 mins; type: functional; conditions: Escherichia coli, 1 h; read-out: IC50
Escherichia coli [15] = test: Ratio of MIC for aminoglycosides-resistant Escherichia coli BL21 harboring pSF815 encode for bifunctional AAC(6')/APH(2\") resistance enzyme to MIC for Escherichia coli BL21; type: functional
Escherichia coli [16] = test: Antibacterial activity against kanamycin-resistant Escherichia coli AG100A by double microdilution method; type: functional
Bacillus subtilis = test: Antibacterial activity against aminoglycosides-susceptible Bacillus subtilis by double microdilution method; type: functional
[17] = Inhibition of Escherichia coli topoisomerase 4 using supercoiled pBR322 DNA as substrate by agarose gel electrophorosis method; conditions: read-out: IC50
[18] = Inhibition of Escherichia coli DNA gyrase using relaxed pBR322 DNA as substrate by agarose gel electrophorosis method; conditions: read-out: IC50
Escherichia coli [19] = test: Resistance index, ratio of MIC for Escherichia coli ATCC 35218 in 15th subculture to MIC for Escherichia coli ATCC 35218 in first subculture; type: functional
Bacillus spizizenii = test: Resistance index, ratio of MIC for Bacillus subtilis ATCC 6633 in 15th subculture to MIC for Bacillus subtilis ATCC 6633 in first subculture; type: functional

Compound | MIC (Escherichia coli [1]) [mg/L] | MIC (Escherichia coli [2]) [mg/L] | MIC (Escherichia coli [3]) [mg/L] | Ratio (Escherichia coli [4]) | MIC (Escherichia coli [5]) [mg/L] | Ratio (Escherichia coli [6]) | Ratio (Escherichia coli [7]) | MIC (Escherichia coli [8]) [mg/L] | MIC (Escherichia coli [9]) [mg/L] | MIC [10] [mg/L] | MIC (Escherichia coli [11]) [mg/L] | MIC (Escherichia coli [12]) [mg/L] | MIC (Escherichia coli [13]) [mg/L] | IC50 (Escherichia coli [14]) [µM] | Ratio (Escherichia coli [15]) | MIC (Escherichia coli [16]) [mg/L] | MIC (Bacillus subtilis) [mg/L] | further results
NC[C@H]1O[C@H](O[C@H]2[C@H](O)[C@@H](O[C@H]3O[C@H](CO)[C@@H](O)[C@H](N)[C@H]3O)[C@H](NCc3cn(CCCCCCN4CCN(c5cc6c(cc5F)c(=O)c(C(=O)O)cn6C5CC5)CC4)nn3)C[C@@H]2N)[C@H](O)[C@@H](O)[C@@H]1O | 12 (≈ 12.3 µM) | 0.8 (≈ 0.817 µM) | 12 (≈ 12.3 µM) | 1 | 24 (≈ 24.5 µM) | 1 | 1 | 0.8 (≈ 0.817 µM) | 0.8 (≈ 0.817 µM) | 24 (≈ 24.5 µM) | 12 (≈ 12.3 µM) | 12 (≈ 12.3 µM) | 0.8 (≈ 0.817 µM) | 6.46 | 1 | 1.5 (≈ 1.53 µM) | 6 (≈ 6.13 µM) | 
NC[C@H]1O[C@H](O[C@H]2[C@H](O)[C@@H](O[C@H]3O[C@H](CO)[C@@H](O)[C@H](N)[C@H]3O)[C@H](NC(=O)CCc3cn(CCN4CCN(c5cc6c(cc5F)c(=O)c(C(=O)O)cn6C5CC5)CC4)nn3)C[C@@H]2N)[C@H](O)[C@@H](O)[C@@H]1O | 3 (≈ 3.11 µM) | 0.4 (≈ 0.415 µM) | 6 (≈ 6.22 µM) | 1 | 24 (≈ 24.9 µM) | 2 | 3 | 0.8 (≈ 0.829 µM) | 0.4 (≈ 0.415 µM) | 18 (≈ 18.7 µM) | 18 (≈ 18.7 µM) | 24 (≈ 24.9 µM) | 0.6 (≈ 0.622 µM) | 19.2 | 2 | 0.75 (≈ 0.777 µM) | 6 (≈ 6.22 µM) | IC50 [17]: > 100 µM; IC50 [18]: 9.9 µM
NC[C@H]1O[C@H](O[C@H]2[C@H](O)[C@@H](O[C@H]3O[C@H](CO)[C@@H](O)[C@H](N)[C@H]3O)[C@H](NC(=O)CCc3cn(CC(O)CN4CCN(c5cc6c(cc5F)c(=O)c(C(=O)O)cn6C5CC5)CC4)nn3)C[C@@H]2N)[C@H](O)[C@@H](O)[C@@H]1O (stereo not given in full) | 6 (≈ 6.03 µM) | 1.5 (≈ 1.51 µM) | 12 (≈ 12.1 µM) | 1 | 24 (≈ 24.1 µM) | 1 | 1 | 0.2 (≈ 0.201 µM) | 1.5 (≈ 1.51 µM) | 36 (≈ 36.2 µM) | 24 (≈ 24.1 µM) | 24 (≈ 24.1 µM) | 1.5 (≈ 1.51 µM) |  | 1 | 1.5 (≈ 1.51 µM) | 9 (≈ 9.04 µM) | 
NC[C@H]1O[C@H](O[C@H]2[C@H](O)[C@@H](O[C@H]3O[C@H](CO)[C@@H](O)[C@H](N)[C@H]3O)[C@H](NC(=O)CCc3cn(CCOCCN4CCN(c5cc6c(cc5F)c(=O)c(C(=O)O)cn6C5CC5)CC4)nn3)C[C@@H]2N)[C@H](O)[C@@H](O)[C@@H]1O | 6 (≈ 5.95 µM) | 0.8 (≈ 0.793 µM) | 12 (≈ 11.9 µM) | 1 | 24 (≈ 23.8 µM) | 1 | 1 | 0.8 (≈ 0.793 µM) | 0.8 (≈ 0.793 µM) | 24 (≈ 23.8 µM) | 12 (≈ 11.9 µM) | 12 (≈ 11.9 µM) | 0.8 (≈ 0.793 µM) |  | 1 | 0.75 (≈ 0.743 µM) | 9 (≈ 8.92 µM) | 
NC[C@H]1O[C@H](O[C@H]2[C@H](O)[C@@H](O[C@H]3O[C@H](CO)[C@@H](O)[C@H](N)[C@H]3O)[C@H](NC(=O)CCc3cn(Cc4ccc(CN5CCN(c6cc7c(cc6F)c(=O)c(C(=O)O)cn7C6CC6)CC5)cc4)nn3)C[C@@H]2N)[C@H](O)[C@@H](O)[C@@H]1O | 24 (≈ 23.1 µM) | 1.5 (≈ 1.44 µM) | 36 (≈ 34.6 µM) | 1 | 48 (≈ 46.1 µM) | 2 | 1 | 0.8 (≈ 0.768 µM) | 1.5 (≈ 1.44 µM) | 18 (≈ 17.3 µM) | 24 (≈ 23.1 µM) | 24 (≈ 23.1 µM) | 0.8 (≈ 0.768 µM) |  | 2 | 3 (≈ 2.88 µM) | 6 (≈ 5.76 µM) | 
NC[C@H]1O[C@H](O[C@H]2[C@H](O)[C@@H](O[C@H]3O[C@H](CO)[C@@H](O)[C@H](N)[C@H]3O)[C@H](NC(=O)CCCc3cn(Cc4ccc(CN5CCN(c6cc7c(cc6F)c(=O)c(C(=O)O)cn7C6CC6)CC5)cc4)nn3)C[C@@H]2N)[C@H](O)[C@@H](O)[C@@H]1O | 3 (≈ 2.84 µM) | 0.8 (≈ 0.758 µM) | 6 (≈ 5.69 µM) |  | 24 (≈ 22.7 µM) | 1 | 1 | 0.8 (≈ 0.758 µM) | 0.8 (≈ 0.758 µM) | 6 (≈ 5.69 µM) |  | 6 (≈ 5.69 µM) | 0.8 (≈ 0.758 µM) | 2.19 | 1 | 0.75 (≈ 0.711 µM) | 3 (≈ 2.84 µM) | 
NC[C@H]1O[C@H](O[C@H]2[C@H](O)[C@@H](O[C@H]3O[C@H](CO)[C@@H](O)[C@H](N)[C@H]3O)[C@H](NCc3cn(CC(O)CN4CCN(c5cc6c(cc5F)c(=O)c(C(=O)O)cn6C5CC5)CC4)nn3)C[C@@H]2N)[C@H](O)[C@@H](O)[C@@H]1O (stereo not given in full) | 1.5 (≈ 1.57 µM) | 0.3 (≈ 0.315 µM) | 3 (≈ 3.15 µM) | 1 | 12 (≈ 12.6 µM) | 1.5 | 1.5 | 0.09 (≈ 0.0944 µM) | 0.3 (≈ 0.315 µM) | 6 (≈ 6.3 µM) | 3 (≈ 3.15 µM) | 3 (≈ 3.15 µM) | 0.3 (≈ 0.315 µM) | 1.27 | 1.5 | 0.37 (≈ 0.388 µM) | 1.5 (≈ 1.57 µM) | Ratio (Escherichia coli [19]): 1.33; IC50 [17]: 19.8 µM; IC50 [18]: 5.9 µM; Ratio (Bacillus spizizenii): 2
